Converted amounts (≈) assume the structure as drawn.
Columns and labels:
animal model of NASH = assay: Animal model of NASH (hypothesized); format: in vivo
Description: Accordingly, in one aspect, methods of treating one or more symptoms of NAFLD and/or NASH, such as hepatocyte ballooning, steatosis, and lobular inflammation, are provided. […] Thus, in some embodiments, administration of pirfenidone as described herein is hypothesized to decrease ballooning and measurably lower plasma and/or liver CK-18 levels in as few as 3 to 12 weeks after treatment initiation. In some embodiments, it is hypothesized that continued daily administration of pirfenidone is efficacious in decreasing inflammation and fibrosis in NASH within 2 to 72 weeks after treatment initiation. In some embodiments, it is hypothesized that treatment with pirfenidone results in an improvement in one or more parameters such as improved ALT enzyme levels, decreased inflammation, decreased steatosis, reduced severity of NASH symptoms, reduced levels of NASH biomarkers such as CK-18, or the slowing, stopping, or reversing of liver fibrosis.

[1] = cited from earlier work
advanced NASH = details: after a year of treatment; cited from earlier work

Cc1ccc(=O)n(-c2ccccc2)c1 [pirfenidone, 5-methyl-1-phenyl-2-1-(H)-pyridone]
hepatocyte ballooning (animal model of NASH; animal model of NASH): demonstrates efficacy in slowing and preventing hepatocyte ballooning | lobular inflammation (animal model of NASH; animal model of NASH): reduces | steatosis (animal model of NASH; animal model of NASH): reduces steatosis | plasma CK-18 levels (animal model of NASH; relative to control animals): decline significantly | relative solubility in solvents ([1]; methanol, ethyl alcohol, acetone, chloroform vs water and 1.0 N HCl): more soluble in methanol, ethyl alcohol, acetone and chloroform than in water and 1.0 N HCl

CC(C)C[C@H](NC(=O)[C@@H](O)[C@H](N)Cc1ccccc1)C(=O)O [Ubenimex, (2S)-2-[[(2S,3R)-3-amino-2-hydroxy-4-phenylbutanoyl]amino]-4-methylpentanoic acid]
solubility in water ([1]; water): 1270 µg/mL (≈ 4.12 mM)

CCCCOCCOc1ccc(-c2ccc3c(c2)/C=C(/C(=O)Nc2ccc([S@@+]([O-])Cc4cncn4CCC)cc2)CCCN3CC(C)C)cc1 [cenicriviroc]
primary endpoint of improving inflammation and liver damage (advanced NASH): failed to meet its primary endpoint
